# In US20220259593A1, “CONTROL OF MAMMALIAN GENE DOSAGE USING CRISPR” (The Regents of the University of California, priority 2019, published 2022):
# System: K562 CRISPRi cells
# Test: Perturb-seq pooled growth measurement (sgRNA counts, growth phenotype γ, relative activity)
# Assay type: cell-based, human
# Details: sequencing read counts; for Perturb-seq pooled growth sgRNA counts, d5: 5 days of growth (day seven after transduction); for Perturb-seq pooled growth sgRNA counts, d10: 10 days of growth (day twelve after transduction); for Perturb-seq pooled growth sgRNA counts, T0: T0 = day two after transduction
# Excerpt: Finally, we sought to use intermediate-activity sgRNAs to explore relationships between expression levels of various genes and the resulting cellular phenotypes. To simultaneously measure gene expression levels and obtain rich phenotypes for a variety of sgRNA series, we used Perturb-seq, an experimental strategy that enables matched capture of the transcriptome and the identity of an expressed sgRNA for each individual cell in pools of cells (27, 31-33) (FIG. 12A). […] In addition to the single-cell transcriptomes, we measured bulk growth phenotypes conferred by sgRNAs in these cells.
# To measure the growth rate defects conferred by each sgRNA for comparison with the transcriptional phenotypes, samples of 500,000 transduced cells were taken from the same transduced cell population used in the Perturb-seq experiment on days two, seven, and twelve after transduction. Genomic DNA was extracted using the Nucleospin Blood kit (Macherey-Nagel) and sgRNA amplicons were prepared as described previously and above (19), albeit with no genomic DNA digestion or gel purification, and sequenced on HiSeq 4000 as described above for the other screens. Growth phenotypes were calculated by comparing normalized sgRNA abundances at day seven and twelve to those at day two, as described above. […] Relative sgRNA activities measured at day seven (five days of growth) were used to assign sgRNA activities in further analysis.
Substance,"Perturb-seq pooled growth sgRNA counts, d5","Perturb-seq pooled growth sgRNA counts, d10","Perturb-seq pooled growth sgRNA counts, T0"
"COX11_+_53045977.23-P1P2_04: sgRNA targeting COX11, GGCTCTGGCGCCCTGGATGG, SEQ ID NO: 143 (listed as DNA, chemistry not fully specified)",8343,5047,5234
"COX11_+_53045977.23-P1P2_05: sgRNA targeting COX11, GGCTCTGGCGTCTTGGATGG, SEQ ID NO: 144 (listed as DNA, chemistry not fully specified)",10766,11496,5205
"COX11_+_53045977.23-P1P2_10: sgRNA targeting COX11, GGCTCTGGCGTCCCGGATGG, SEQ ID NO: 145 (listed as DNA, chemistry not fully specified)",8887,11271,5206
"DBR1_+_137893744.23-P1P2_00: sgRNA targeting DBR1, GTTTGCAGGAGTCTACACCC, SEQ ID NO: 78 (listed as DNA, chemistry not fully specified)",9171,3583,13446
"DBR1_+_137893744.23-P1P2_01: sgRNA targeting DBR1, GATTGCAGGAGTCTACACCC, SEQ ID NO: 79 (listed as DNA, chemistry not fully specified)",5512,1824,9446
"DBR1_+_137893744.23-P1P2_05: sgRNA targeting DBR1, GTTTGCAGGAGTGTACACCC, SEQ ID NO: 81 (listed as DNA, chemistry not fully specified)",6705,4748,6569
"DBR1_+_137893744.23-P1P2_07: sgRNA targeting DBR1, GTTTGCAGGGGTCTACACCC, SEQ ID NO: 80 (listed as DNA, chemistry not fully specified)",4894,2550,8500
"DBR1_+_137893744.23-P1P2_08: sgRNA targeting DBR1, GTTTGCAGTAGTCTACACCC, SEQ ID NO: 82 (listed as DNA, chemistry not fully specified)",11651,15989,5326
"DUT_+_48624411.23-P1P2_00: sgRNA targeting DUT, GCGAGCGAGGAGACCACCGG, SEQ ID NO: 110 (listed as DNA, chemistry not fully specified)",3755,1570,14025
"DUT_+_48624411.23-P1P2_01: sgRNA targeting DUT, GCCAGCGAGGAGACCACCGG, SEQ ID NO: 111 (listed as DNA, chemistry not fully specified)",6764,3576,25227
"DUT_+_48624411.23-P1P2_07: sgRNA targeting DUT, GCGAGCGAGGAGCCCACCGG, SEQ ID NO: 113 (listed as DNA, chemistry not fully specified)",1509,1157,4601
"DUT_+_48624411.23-P1P2_08: sgRNA targeting DUT, GCGAGCGAGGAGGCCACCGG, SEQ ID NO: 112 (listed as DNA, chemistry not fully specified)",4351,2392,15356
"DUT_+_48624411.23-P1P2_10: sgRNA targeting DUT, GCGAGCGAGGAGACCAACGG, SEQ ID NO: 114 (listed as DNA, chemistry not fully specified)",5403,4466,6538
"EIF2S1_−_67827080.23-P1P2_00: sgRNA targeting EIF2S1, GAGCGAAGCGCACGCTGAGG, SEQ ID NO: 136 (listed as DNA, chemistry not fully specified)",1123,1318,5718
"EIF2S1_−_67827080.23-P1P2_01: sgRNA targeting EIF2S1, GAGCGAAACGCACGCTGAGG, SEQ ID NO: 139 (listed as DNA, chemistry not fully specified)",3799,4065,5433
"EIF2S1_−_67827080.23-P1P2_02: sgRNA targeting EIF2S1, GAGCGCAGCGCACGCTGAGG, SEQ ID NO: 138 (listed as DNA, chemistry not fully specified)",2570,2582,8035
"EIF2S1_−_67827080.23-P1P2_06: sgRNA targeting EIF2S1, GAGCGAAGCGCGCGCTGAGG, SEQ ID NO: 137 (listed as DNA, chemistry not fully specified)",1718,2436,4549
"EIF2S1_−_67827080.23-P1P2_07: sgRNA targeting EIF2S1, GAGCGAAGCGCTCGCTGAGG, SEQ ID NO: 140 (listed as DNA, chemistry not fully specified)",13281,22309,6931
"GATA1_−_48645022.23-P1P2_00: sgRNA targeting GATA1, GTGAGCTTGCCACATCCCCA, SEQ ID NO: 119 (listed as DNA, chemistry not fully specified)",955,757,5712
"GATA1_−_48645022.23-P1P2_03: sgRNA targeting GATA1, GTGCGCTTGCCACATCCCCA, SEQ ID NO: 120 (listed as DNA, chemistry not fully specified)",1927,1534,12276
"GATA1_−_48645022.23-P1P2_04: sgRNA targeting GATA1, GTGAGCTTACCACATCCCCA, SEQ ID NO: 121 (listed as DNA, chemistry not fully specified)",860,668,4714
"GATA1_−_48645022.23-P1P2_06: sgRNA targeting GATA1, GTGAGCTTGCGACATCCCCA, SEQ ID NO: 123 (listed as DNA, chemistry not fully specified)",5580,5489,9440
"GATA1_−_48645022.23-P1P2_08: sgRNA targeting GATA1, GTGAGCTTTCCACATCCCCA, SEQ ID NO: 122 (listed as DNA, chemistry not fully specified)",2043,1873,7028
"GATA1_−_48645022.23-P1P2_12: sgRNA targeting GATA1, GTGAGCTTGCCACATCCGCA, SEQ ID NO: 124 (listed as DNA, chemistry not fully specified)",7289,11548,4081
"GINS1_−_25388381.23-P1P2_00: sgRNA targeting GINS1, GGACTAGAACGAAAGGAGTG, SEQ ID NO: 93 (listed as DNA, chemistry not fully specified)",547,280,3621
"GINS1_−_25388381.23-P1P2_03: sgRNA targeting GINS1, GGACTATAACGAAAGGAGTG, SEQ ID NO: 96 (listed as DNA, chemistry not fully specified)",2982,2755,9799
"GINS1_−_25388381.23-P1P2_06: sgRNA targeting GINS1, GGACTAGAACGGAAGGAGTG, SEQ ID NO: 95 (listed as DNA, chemistry not fully specified)",1828,1219,11452
"GINS1_−_25388381.23-P1P2_08: sgRNA targeting GINS1, GGACTAGAGCGAAAGGAGTG, SEQ ID NO: 94 (listed as DNA, chemistry not fully specified)",2461,1756,18173
